Molecules are shown by their SMILES. Activity calls are given as the source filed them.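 How the source made its calls: active means fluorescence change from solvent-only control to top dose above 25; inactive means the rest.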

In the data set the test system is S. cerevisiae s288c autofluorescence, flow cytometry MCF, 3 h. As to the kind of experiment: fluorescence artefact check, untagged yeast strain – cherry pick 3, multiplex, flow cytometry, artefact control for yeast TOR pathway GFP screen, SAR follow-up (AID 488818). The following applies: at 33.3 µM; active compounds read high.
With `Cc1ccc2c(C)ccc(O)c2n1`, the fluorescence change is 0 (inactive).
Then `Oc1c(Cl)cc(Cl)c2cccnc12`, with 2.85 (inactive); and `Oc1c(I)cc(Cl)c2cccnc12`, with 2.85 (inactive); and `Cc1nc2c(O)cccc2cc1CO`, with 0.06 (inactive).
For the compound `CCOC(=O)CS(=O)(=O)c1nc(-c2ccccc2)cc(C(F)(F)F)n1`, the fluorescence change is 0.24 (inactive).
`Cc1ccc2c(Cl)cc(Cl)c(O)c2n1`: the fluorescence change was 0.81 (inactive).
Then `Oc1c(Br)cc(Br)c2cccnc12`, with 3.5 (inactive); and `Oc1ccc(Cl)c2cccnc12`, with 0.19 (inactive).
For `COCC(C)NC(=O)CCS(=O)(=O)c1nc(-c2ccc(OC)cc2)cc(C(F)(F)F)n1` (stereo unspecified), the fluorescence change is 0.12 (inactive).
The same measure for `COc1ccccc1-c1cc(C(F)(F)F)nc(S(=O)(=O)CCCC(=O)NC(C)C)n1`: 0.18 (inactive).
Then `Cc1ccc(NN2C(=O)C=C(c3ccccc3)C2=O)cc1`, with 0.65 (inactive); and `Cc1ccc(C(=O)Nc2nc(-c3ccccn3)cs2)o1`, with 0.24 (inactive).
Then `CC(=O)NC(C)c1cc(Cl)c2cccnc2c1O` (stereo unspecified), with 0.25 (inactive).
With `CCC(C)Nc1nc(N)c([N+](=O)[O-])c(Nc2ccccc2OC)n1` (stereo unspecified), the fluorescence change is 0.06 (inactive).
For the compound `CNc1nc(C)c([N+](=O)[O-])c(Nc2ccc(OC)cc2)n1`, the fluorescence change is 0.06 (inactive).
Then `COCCCNc1nc(N)c([N+](=O)[O-])c(Nc2ccccc2OC)n1`, with 0.06 (inactive); and `COc1cccc2c(Cl)c(CCCl)c(C)nc12`, with 0.24 (inactive).
Then `O=C(Nc1nc(-c2ccccn2)cs1)c1ccccc1-n1cnnn1`, with 0.07 (inactive).
As for `Nc1nc(NCCOCCO)nc(Nc2cccc(F)c2)c1[N+](=O)[O-]`, the fluorescence change was 0.12 (inactive).
With `COCCNc1nc(N)c([N+](=O)[O-])c(Nc2ccc(F)cc2)n1`, the fluorescence change is 0.18 (inactive).
Then `CCCOCc1ccc(O)c2ncccc12`, with 0.25 (inactive).
The same measure for `Oc1ccc(F)c2cccnc12`: 0.06 (inactive); for `Nc1ncnc(Nc2cc(Cl)cc(Cl)c2)c1[N+](=O)[O-]`: 0.12 (inactive); for `NC(=O)c1ccnc2c(O)cccc12`: 0.06 (inactive).
With `N#Cc1c(N)nc(N)nc1Nc1ccc(Br)cc1`, the fluorescence change is 0.12 (inactive).
The same measure for `O=C(O)c1ccc2cccc(O)c2n1`: 0.18 (inactive); for `CNc1nc(N)c([N+](=O)[O-])c(Nc2ccccc2OC)n1`: 0.08 (inactive).
`CCC(C)Nc1nc(N)c([N+](=O)[O-])c(Nc2cc(OC)ccc2OC)n1` (stereo unspecified): the fluorescence change was 0.8 (inactive).
Then `COc1ccccc1Nc1nc(NCCO)nc(N)c1[N+](=O)[O-]`, with 0.19 (inactive); and `Cc1nc(Nc2ccc(Br)cc2Br)c([N+](=O)[O-])c(=O)[nH]1`, with 0 (inactive).
The same measure for `COc1ccccc1Nc1nc(NCCC(C)C)nc(N)c1[N+](=O)[O-]`: 0.07 (inactive); for `COc1ccc(OC)c(Nc2nc(NCCC(C)C)nc(N)c2[N+](=O)[O-])c1`: 0.12 (inactive).
The same measure for `COc1ccc(OC)c2c(=O)cc(C(=O)O)[nH]c12`: 0.06 (inactive); for `CCc1sc(C(=O)Nc2nc(-c3ccccn3)cs2)cc1C`: 0.65 (inactive); for `O=C(O)c1ccc2cccnc2c1O`: 0.12 (inactive).
Turning to `COc1ccccc1-c1cc(C(F)(F)F)nc(S(=O)(=O)CCCC(=O)O)n1`, the fluorescence change is 0.5 (inactive).
The same measure for `CNc1nc(N)c([N+](=O)[O-])c(Nc2cccc(Cl)c2)n1`: 0.08 (inactive); for `Cc1cccc(C)c1Nc1ncnc(N)c1[N+](=O)[O-]`: 0.12 (inactive).
For the compound `COc1ccc(Nc2nc(NN)nc(C)c2[N+](=O)[O-])cc1`, the fluorescence change was 0.06 (inactive).
Then `CC1=NNC(=O)/C1=C\c1cn(-c2ccccc2)nc1-c1ccc(F)cc1`, with 0.24 (inactive); and `Cn1cccc1C(=O)Nc1nc(-c2ccccn2)cs1`, with 0.3 (inactive).

Source of the values: PubChem BioAssay AID488818 (NMMLSC, 2010).
